This note sets out measurements from patent US8563472B2 (priority 2010, dated 2013).

The subject of data set [1] is Leptosphaeria nodorum (LEPTNO). Kind of data set: In vitro fungitoxicity assay against Leptosphaeria nodorum in copper-minus / copper-plus liquid medium. Type of data set: cell-based. Particulars: for inhibition of growth at 0.05 µg/mL: Parastagonospora nodorum, copper-minus medium, growth by light scattering, read-out: LEPTNO % Inhn. Minus Copper Observed; for inhibition of growth at 0.05 µg/mL / LEPTNO % Inhn. Plus Copper Observed: test compound 0.05 μg/mL, 25° C., 72 h; for LEPTNO % Inhn. Plus Copper Observed: copper-plus medium (CuCl2.2H2O). The method, then:
In vitro fungitoxicity assays against Leptosphaeria nodorum (LEPTNO) were conducted using the liquid growth medium described by Coursen and Sisler (American Journal of Botany 1960, 47, 541-549) except that copper micronutrient, normally included as CuSO4, was omitted. The medium, termed “copper-minus”, was prepared by dissolving 10 g glucose, 1.5 g K2HPO4, 2 g KH2PO4 and 1 g (NH4)2SO4 in 1 liter of deionized water and treating the solution with 0.5 g Chelex 100 resin (Bio-Rad Analytical grade, 50-100 mesh, sodium form, cat#142-2822) by stirring at room temperature for 1 h. MgSO4.7H2O (0.5 g) was added, and stirring was continued for a further hour. Trace elements (minus CuSO4), and vitamins described by Coursen and Sisler were added from concentrated stock solutions and the entire medium was sterilized by filtration. Medium containing copper was prepared by adding CuCl2.2H2O to the copper-minus medium at 20 μM. […] Copper-minus medium (100 μL) was added to one of the wells and copper-plus medium to the second well. Control wells, included for each medium, received 1 μL DMSO and 100 μL of medium.
LEPTNO was grown on potato dextrose agar in 9 cm diameter petri dishes for 7 days (d). Sterile deionized water (20 mL) was added to a culture plate and spores suspended by scraping the surface gently with a sterile plastic loop. The resulting suspension was filtered through a double layer of sterile cheesecloth. […] The spores were resuspended in copper-minus medium, and the suspension adjusted to 2×10^5 spores per mL. Microtiter plates were inoculated with 100 μL of this spore suspension and the plates incubated at 25° C. for 72 h before assessing fungal growth by measuring light scattering in a NepheloStar plate reader. Growth inhibition was determined by comparing growth in the presence of test compound with growth in control wells lacking test compound.

For data set [2], the system named is Phytophthora infestans. The data set is classed as in vivo. Particulars: hydrazone 50 ppm with 50 μM CuCl2.2H2O, applied 24 h before inoculation, tomato plants, assessed 7 d after inoculation.

With `Cc1occc1C(=O)N/N=C/c1cc(Br)ccc1O` [Compound 6], in data set [1], the inhibition of growth at 0.05 µg/mL was 2.2% and the “LEPTNO % Inhn. Plus Copper Observed” value amounted to 96.7%. This molecule displayed a TLB % control in data set [2] of 75%.

As to `C/C(=N\NC(=O)c1cn(-c2ccccc2)nc1O)c1cc(Cl)cc(Cl)c1O` [Compound 42], the melting point – broadly, the temperature, or range, at which the solid turns liquid – was in the range of 269 to 271 °C. For the same molecule, in data set [1], the inhibition of growth at 0.05 µg/mL stood at 3.5% and the “LEPTNO % Inhn. Plus Copper Observed” value is listed as 91.2%. Besides, the TLB % control in data set [2] was determined as 2%.

`Cc1nc(C)c(C(=O)N/N=C/c2cc(Cl)cc(Cl)c2O)s1` [Compound 25] yielded a melting point of 217 to 219 °C. In data set [1], the inhibition of growth at 0.05 µg/mL came out at 0% and the “LEPTNO % Inhn. Plus Copper Observed” value came to 81.9%. Also, the TLB % control in data set [2] turned out to be 71%.

`O=C(N/N=C/c1cc(Cl)cc(Cl)c1O)c1ccsc1` [Compound 28] gave a melting point of 315 to 318 °C. For the same molecule, in data set [1], the inhibition of growth at 0.05 µg/mL came to 4.4% and the “LEPTNO % Inhn. Plus Copper Observed” value came to 97.6%. Further, the TLB % control in data set [2] stood at 80%.

In the case of `CN1CCCCC1C(=O)N/N=C/c1cc(Cl)cc(Cl)c1O` (centres unmarked) [Compound 54, 1-methyl-piperidine-2-carboxylic acid [1-(3,5-dichloro-2-hydroxy-phenyl)-methylidene]-hydrazide], the melting point lay in the range of 107 to 110 °C. Also, in data set [1], the inhibition of growth at 0.05 µg/mL is 0% and the “LEPTNO % Inhn. Plus Copper Observed” value turned out to be 91%. The TLB % control in data set [2] stood at 22%.

`Cn1cc(C(=O)N/N=C/c2cc(Cl)cc(Cl)c2O)c2ccccc21` [Compound 15] gave a melting point of 215 to 217 °C. Besides, in data set [1], the inhibition of growth at 0.05 µg/mL amounted to 16.3% and the “LEPTNO % Inhn. Plus Copper Observed” value turned out to be 98.1%. Also, the TLB % control in data set [2] amounted to 12%.

`O=C(N/N=C/c1ccccc1O)c1ccc(Cl)s1` [Compound 23] gave a melting point of 228 to 230 °C. In addition, in data set [1], the inhibition of growth at 0.05 µg/mL came out at 0% and the “LEPTNO % Inhn. Plus Copper Observed” value is 96.3%. The same molecule returned a TLB % control in data set [2] of 32%.

As for `O=C(N/N=C/c1ccccc1)c1cnn(-c2ccc(Cl)cc2)c1C(F)(F)F` [Compound 18], the melting point lay in the range of 205 to 207 °C. For the same molecule, in data set [1], the inhibition of growth at 0.05 µg/mL worked out at 0% and the “LEPTNO % Inhn. Plus Copper Observed” value turned out to be 92.5%. Also, the TLB % control in data set [2] stood at 7%.

As to `C/C(=N\NC(=O)c1cnn(-c2ccc(Cl)cc2)c1C(F)(F)F)c1cc(Cl)cc(Cl)c1O` [Compound 41], the melting point lay within 209 to 211 °C. For the same molecule, in data set [1], the inhibition of growth at 0.05 µg/mL worked out at 0% and the “LEPTNO % Inhn. Plus Copper Observed” value turned out to be 71.3%. The molecule also had a TLB % control in data set [2] of 36%.

In the case of `C/C(=N\NC(=O)c1ccsc1)c1cc(Br)cc(Br)c1O` [Compound 53], the melting point lay within 251 to 253 °C. For the same molecule, in data set [1], the inhibition of growth at 0.05 µg/mL is 7.6% and the “LEPTNO % Inhn. Plus Copper Observed” value was found to be 97.6%. This molecule showed a TLB % control in data set [2] of 73%.

`C/C(=N\NC(=O)c1cn(-c2ccccc2)nc1O)c1ccccc1O` [Compound 36] displayed a melting point of 276 to 277 °C. In data set [1], the inhibition of growth at 0.05 µg/mL was 9.2% and the “LEPTNO % Inhn. Plus Copper Observed” value is on record as 92.5%. This molecule also yielded a TLB % control in data set [2] of 66%.

With `C/C(=N\NC(=O)c1ccc(Cl)s1)c1cc(Br)cc(Br)c1O` [Compound 50], the melting point lay within 253 to 255 °C. In data set [1], the inhibition of growth at 0.05 µg/mL came out at 0% and the “LEPTNO % Inhn. Plus Copper Observed” value is 97.5%. For the same molecule, in data set [2], the TLB % control was 85%.

As to `O=C(N/N=C/c1cc(Cl)ccc1O)c1cccs1` [Compound 5], in data set [1], the inhibition of growth at 0.05 µg/mL is 0% and the “LEPTNO % Inhn. Plus Copper Observed” value is given as 95.8%. In data set [2], this molecule returned a TLB % control of 54%.

As for `C=CCc1cccc(/C=N/NC(=O)c2ccc(Br)o2)c1O` [Compound 11], in data set [1], the inhibition of growth at 0.05 µg/mL is 12.9% and the “LEPTNO % Inhn. Plus Copper Observed” value amounted to 95.1%. The TLB % control in data set [2] turned out to be 31%.

As for `O=C(N/N=C/c1ccccc1O)c1sc2ccccc2c1Cl` [Compound 19], in data set [1], the inhibition of growth at 0.05 µg/mL was determined as 0% and the “LEPTNO % Inhn. Plus Copper Observed” value turned out to be 92.1%. The molecule also displayed a TLB % control in data set [2] of 44%.

Molecule `C/C(=N\NC(=O)c1csc(C)c1)c1cc(Cl)cc(Cl)c1O` [Compound 45] registered a melting point of 218 to 220 °C. Also, in data set [1], the inhibition of growth at 0.05 µg/mL worked out at 3.7% and the “LEPTNO % Inhn. Plus Copper Observed” value worked out at 98.3%. In addition, in data set [2], the TLB % control is 83%.

Take `C/C(=N\NC(=O)c1sc(C)nc1C)c1cc(Cl)cc(Cl)c1O` [Compound 43]: the melting point is 208 to 209 °C. For the same molecule, in data set [1], the inhibition of growth at 0.05 µg/mL was 0% and the “LEPTNO % Inhn. Plus Copper Observed” value is on record as 94.3%. In addition, the TLB % control in data set [2] stood at 66%.

Regarding `C/C(=N\NC(=O)c1ccc(Cl)s1)c1ccccc1O` [Compound 38], the melting point fell in the range of 204 to 205 °C. In data set [1], the inhibition of growth at 0.05 µg/mL was found to be 0% and the “LEPTNO % Inhn. Plus Copper Observed” value was determined as 98%. The same molecule yielded a TLB % control in data set [2] of 56%.

As for `C/C(=N\NC(=O)c1ccsc1)c1cc(Cl)cc(Cl)c1O` [Compound 47], the melting point lay within 230 to 232 °C. Besides, in data set [1], the inhibition of growth at 0.05 µg/mL came out at 0% and the “LEPTNO % Inhn. Plus Copper Observed” value was found to be 98.1%. In data set [2], this molecule yielded a TLB % control of 81%.

Take `O=C(N/N=C/c1ccccc1O)c1snnc1-c1ccccc1` [Compound 22]: the melting point is 191 to 192 °C. Further, in data set [1], the inhibition of growth at 0.05 µg/mL was determined as 9.6% and the “LEPTNO % Inhn. Plus Copper Observed” value was 77.9%. The molecule further returned a TLB % control in data set [2] of 56%.

As to `C/C(=N\NC(=O)c1ccc(Cl)s1)c1cc(Cl)cc(Cl)c1O` [Compound 44], the melting point fell in the range of 221 to 224 °C. Also, in data set [1], the inhibition of growth at 0.05 µg/mL was determined as 2% and the “LEPTNO % Inhn. Plus Copper Observed” value is 96.9%. The molecule further showed a TLB % control in data set [2] of 68%.

On to `O.O.[Cl][Cu][Cl]` [CuCl2, CuCl2.2H2O, reference compound], for which the “LEPTNO % inhibition attributed to copper chloride alone” value in data set [1] (CuCl2 10 μM, no test compound, copper-plus vs copper-minus medium across experiments) came out at 9.3 ± 1.6%.

On to `Cc1occc1C(=O)N/N=C/c1cc(Br)cc(Br)c1O` [Compound 33], for which the melting point lay within 270 to 272 °C. In data set [1], the inhibition of growth at 0.05 µg/mL came out at 9.1% and the “LEPTNO % Inhn. Plus Copper Observed” value is 97.8%. The TLB % control in data set [2] is reported as 66%.

In turn, `Cc1c(C(=O)N/N=C/c2ccccc2O)[nH]c2c([N+](=O)[O-])cccc12` [Compound 4] had a melting point of 296 to 299 °C. Moreover, in data set [1], the inhibition of growth at 0.05 µg/mL came to 11.3% and the “LEPTNO % Inhn. Plus Copper Observed” value turned out to be 91.4%. Besides, the TLB % control in data set [2] was 4%.

Take `O=C(N/N=C/c1cc(Cl)cc(Cl)c1O)c1sc(C(F)(F)F)nc1C(F)(F)F` [Compound 12]: the melting point lay within 189 to 190 °C. Further, in data set [1], the inhibition of growth at 0.05 µg/mL was 49.8% and the “LEPTNO % Inhn. Plus Copper Observed” value came to 94.7%. The TLB % control in data set [2] was 57%.

`C/C(=N\NC(=O)c1cc(C)nc2ccc(Br)cc12)c1ccccc1O` [Compound 2]: the melting point lay in the range of 251 to 254 °C. In data set [1], the inhibition of growth at 0.05 µg/mL came to 0% and the “LEPTNO % Inhn. Plus Copper Observed” value was determined as 83.4%. Besides, the TLB % control in data set [2] worked out at 36%.

Regarding `C/C(=N\NC(=O)c1ccsc1)c1ccccc1O` [Compound 40], the melting point lay within 148 to 150 °C. Besides, in data set [1], the inhibition of growth at 0.05 µg/mL came out at 0% and the “LEPTNO % Inhn. Plus Copper Observed” value is 96.8%. Also, the TLB % control in data set [2] was determined as 80%.

As to `Cc1ccc(C(=O)N/N=C/c2cc(Br)cc(Cl)c2O)cn1` [Compound 8], in data set [1], the inhibition of growth at 0.05 µg/mL amounted to 0% and the “LEPTNO % Inhn. Plus Copper Observed” value stood at 60.9%. Besides, the TLB % control in data set [2] is 0%.

As for `Cc1occc1C(=O)N/N=C/c1cc(Cl)cc(Cl)c1O` [Compound 10], in data set [1], the inhibition of growth at 0.05 µg/mL was found to be 8.7% and the “LEPTNO % Inhn. Plus Copper Observed” value is reported as 98.1%. The TLB % control in data set [2] was 67%.

For `O=C(N/N=C/c1ccccc1O)c1cccs1` [Compound 7], in data set [1], the inhibition of growth at 0.05 µg/mL came out at 0% and the “LEPTNO % Inhn. Plus Copper Observed” value was found to be 87.3%. The molecule further returned a TLB % control in data set [2] of 38%.

In the case of `O=C(N/N=C/c1cc(Cl)cc(Cl)c1O)c1ccco1` [Compound 14], in data set [1], the inhibition of growth at 0.05 µg/mL stood at 0% and the “LEPTNO % Inhn. Plus Copper Observed” value is recorded as 56.2%. Moreover, in data set [2], the TLB % control came to 52%.

With `C/C(=N\NC(=O)c1ccoc1C)c1ccccc1O` [Compound 9], in data set [1], the inhibition of growth at 0.05 µg/mL came out at 3.9% and the “LEPTNO % Inhn. Plus Copper Observed” value is on record as 97%. The molecule also gave a TLB % control in data set [2] of 60%.
